Data set [1] is described as follows: Stability assessment: storage for 4 weeks, HPLC analysis. Format: physicochemical. Conditions: for Stability assessment (HPLC), Open ACC: open state, accelerated condition (40° C., 75% RH); for Stability assessment (HPLC), Closed STR: sealed state, harsh condition, oven at 80° C. As for the experimental part:
About 10-30 mg of the sample was stored for 4 weeks in an open state under the accelerated condition (40° C., 75% RH) or in a sealed state under the harsh condition in an oven at 80° C.

Experiment in data set [2]: as above
Format: physicochemical. The conditions noted are these: stored at room temperature.

Entries after “also recorded” stand apart in the source; their conditions may differ.

As to `CC(C)C(=O)N([C@H]1C[C@@H](C(=O)N2CCOCC2)N(C(=O)[C@@H]2CN(C(C)(C)C)C[C@H]2c2ccc(Cl)cc2)C1)[C@H]1CC[C@@H](C)CC1.Cl` [Example 1, N-((3S, 5S)-1-((3S,4R)-1-(Tert-Butyl)-4-(4-Chlorophenyl) Pyrrolidine-3-Carbonyl)-5-(Morpholine-4-Carbonyl) Pyrrolidin-3-yl)-N-((1s,4R)-4-Methylcyclohexyl) Isobutyramide Hydrochloride], the “Stability assessment (HPLC)” value in data set [1] (Initial, in % (unit assumed)) is listed as 98.72. Besides, in data set [1] (accelerated condition (40° C., 75% RH) and harsh condition (80° C.), 4 weeks, listed as crystalline form I, Hydrochloride), the “chemical stability (result in words)” value was “showed chemical stability for 4 weeks; also recorded: exhibited chemical stability for 4 weeks”. The “Stability assessment (HPLC), Open ACC” value in data set [1] (Day 3, in % (unit assumed)) is on record as 98.22; in data set [1] (Week 1, in % (unit assumed)) it was 98.45; in data set [1] (Week 2, in % (unit assumed)), 98.40; in data set [1] (Week 4, in % (unit assumed)), 98.32. Further, the “Stability assessment (HPLC), Closed STR” value in data set [1] (Day 3, in % (unit assumed)) is reported as 97.35; in data set [1] (Week 1, in % (unit assumed)), 97.28; in data set [1] (Week 2, in % (unit assumed)), 97.82; in data set [1] (Week 4, in % (unit assumed)), 97.30. Moreover, the “Stability assessment (HPLC), Closed RT” value is 97.99 in data set [2] (Week 2, in % (unit assumed)) and 97.74 in data set [2] (Week 4, in % (unit assumed)).

For the origin of these results see patent US20230373984A1, “CRYSTALLINE FORM I OF MELANOCORTIN RECEPTOR AGONIST COMPOUND AND PREPARATION METHOD THEREFOR” (LG CHEM, LTD., priority 2020, published 2023).
